We go through three compounds from patent US6759422B2, “Ion channel modulating agents” (Neurosearch A/S, priority 1999, dated 2004).

The structures appear in SMILES notation.

The test concerns the target T1, Intermediate-conductance Ca2+-activated K+ channels (IK channels), hIK (Homo sapiens, UniProt O15554).
T1 construct: expressed in transfected cells; host or cells: HEK293
Nature of the test: Whole-cell patch-clamp recording of ionic current through IK channels stably expressed in HEK293 cells. The test is classed as cell-based. The note with it: 1 μM test compound, baseline hIK current set to 100 (>100 activator, <100 blocker, 200 = doubling), whole-cell mode. The method, then:
In this experiment the ionic current through Intermediate-conductance Ca^2+-activated K^+ channels (IK channels) is recorded in the whole-cell mode of the patch-clamp technique.
Intermediate-conductance Ca^2+-activated K^+ channels (IK channels) have been cloned from human placenta and stably expressed in HEK293 cells.
Human IK (hIK) was excised from pT3T7 (GenBank Acc. No. N56819) using EcoR I and Not I and subcloned into the mammalian expression vector pNS1Z (NeuroSearch), a custom designed derivative of pcDNA3Zeo (InVitrogen) to give the plasmid construct pNS1Z_hIK. HEK293 tissue culture cells were grown in DMEM (Dulbecco's Modified Eagle Medium) supplemented with 10% FCS (foetal calf serum) at 37° C. in 5% CO2. One day prior to transfection, 10^6 cells were plated in a cell culture T25 flask. The following day, cells were transfected using lipofection (20 μL Lipofectamin™, Life Technologies, with 2.5 μg of the plasmid pNS1Z_hIK in a total volume of 540 μL).
The lipofection mixture was overlaid on the cells and incubated at 37° C. for 5 hours. The cells were then rinsed with regular media and grown for 72 hours in DMEM, 10% FCS at 37° C. in 5% CO2. […]
Experiments are carried out on a patch-clamp workstation equipped with an autosampler. […] Data are stored directly on the harddisk and analysed by the IGOR software (wavemetrics, Lake Oswego, USA)
The whole-cell configuration of the patch clamp technique is applied. […] Cell capacitance is electronically compensated and the resistance between the pipette and the cell interior (the series resistance, Rs) is measured and compensated for. […]
The extracellular (bath) solution contains (conc. in mM): 144 KCl, 0.1 CaCl2, 3 MgCl2, 10 HEPES (pH=7.4). The intracellular (pipette) solution has the following composition (conc. in mM): 144 KCl, 10 EGTA, 10 HEPES (pH=7.2) as well as CaCl2 and MgCl2 in concentrations calculated to result in a free concentration of Ca^2+ between 100 nM and 300 nM. The free concentration of Mg^2+ is calculated to be 1 mM. […]
Background: The patch-clamp technique gives a direct electrical read-out from membranes.
Regarding `Nc1nc2c(Cl)c(Cl)ccc2s1` [Compound 1, 2-amino-4,5-dichlorobenzothiazole], the “Ionic Currents: Value determined using 1 μM of the test compound” value (“Ionic Currents: Value determined” below) was determined as 170.

As for `Cc1ccc2sc(N)nc2c1C` [Compound 2, 2-amino-4,5-dimethylbenzothiazole], the “Ionic Currents: Value determined” value is reported as 130.

With `Nc1nc2c3c(ccc2s1)CCCC3` [Compound 3, 2-amino-(5,6,7,8-tetrahydronaphto)-[1,2-d]-thiazole], the “Ionic Currents: Value determined” value came to 400.
